For orientation: IC50 means the concentration needed to halve the response being measured.

Some results are limits rather than exact numbers.

Results on seven compounds are retold here after ChEMBL document CHEMBL4229534, “Amelioration of mechanism-based inactivation of CYP3A4 by a H-PGDS inhibitor” (Bioorg Med Chem Lett, 2018).

In data set [1] the target is T1, Cytochrome P450 3A4 (Homo sapiens, UniProt P08684). In words: Mechanism based inactivation of CYP3A4 in human liver microsomes assessed as apparent partition ratio by measuring ratio of number of inactivator molecules that get metabolized to number of enzyme molecules inactivated using midazolam as substrate. In kind it is ADME. (Microsomes from liver hold many membrane-bound enzymes, among them those of drug oxidation.)

For data set [2], the target named is T2, CYP3A4 (Homo sapiens, UniProt P08684). In words: Inhibition of CYP3A4 in human liver microsomes assessed as residual activity using midazolam as substrate relative to control. More on the design: concentration or dose not given beside the values. In kind it is ADME. Conditions: probe midazolam; call rule not given here.
Data set [3] deals with T1, Cytochrome P450 3A4. In words: Mechanism based inactivation of CYP3A4 in human liver microsomes assessed as apparent partition ratio by measuring ratio of number of inactivator molecules that get metabolized to number of enzyme molecules inactivated using testosterone as substrate. In kind it is ADME.
Data set [4] concerns the target T2, CYP3A4. In words: Inhibition of CYP3A4 in human liver microsomes assessed as residual activity using testosterone as substrate relative to control. In kind it is ADME. Details: concentration or dose not given beside the values. The following applies: probe testosterone.
Data set [5] has as its target Hematopoietic prostaglandin D synthase (Homo sapiens, UniProt O60760). Nature of the data set: Inhibition of HPGDS (unknown origin).
Data set [6] addresses T1, Cytochrome P450 3A4. Nature of the data set: (§1) Inhibition of recombinant human CYP3A4 assessed as residual activity using midazolam as substrate relative to control. In kind it is ADME. Conditions: recombinant enzyme.
The target of data set [7] is T1, Cytochrome P450 3A4. In words: (§2) Inhibition of recombinant human CYP3A4 assessed as residual activity using testosterone as substrate relative to control. In kind it is ADME. The following applies: recombinant enzyme.
The target in data set [8] is T1, Cytochrome P450 3A4. In words: Mechanism based inactivation of recombinant human CYP3A4 assessed as apparent partition ratio by measuring ratio of number of inactivator molecules that get metabolized to number of enzyme molecules inactivated using midazolam as substrate. In kind it is ADME.
Data set [9] deals with T2, CYP3A4. Described as §1. In kind it is ADME. Conditions: recombinant human CYP3A4, probe midazolam.
For data set [10], the target named is T1, Cytochrome P450 3A4. In words: Mechanism based inactivation of recombinant human CYP3A4 assessed as apparent partition ratio by measuring ratio of number of inactivator molecules that get metabolized to number of enzyme molecules inactivated using testosterone as substrate. In kind it is ADME.
Data set [11] concerns the target T2, CYP3A4. The description is as §2. In kind it is ADME. Conditions: recombinant human CYP3A4, probe testosterone.

Sequence of Hematopoietic prostaglandin D synthase (O60760 whole entry): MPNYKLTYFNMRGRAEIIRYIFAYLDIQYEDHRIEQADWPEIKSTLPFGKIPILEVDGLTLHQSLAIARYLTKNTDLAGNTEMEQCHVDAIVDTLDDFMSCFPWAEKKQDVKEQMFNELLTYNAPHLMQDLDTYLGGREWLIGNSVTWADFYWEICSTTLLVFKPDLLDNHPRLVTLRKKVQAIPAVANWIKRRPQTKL
T2 sequence (P08684 whole entry): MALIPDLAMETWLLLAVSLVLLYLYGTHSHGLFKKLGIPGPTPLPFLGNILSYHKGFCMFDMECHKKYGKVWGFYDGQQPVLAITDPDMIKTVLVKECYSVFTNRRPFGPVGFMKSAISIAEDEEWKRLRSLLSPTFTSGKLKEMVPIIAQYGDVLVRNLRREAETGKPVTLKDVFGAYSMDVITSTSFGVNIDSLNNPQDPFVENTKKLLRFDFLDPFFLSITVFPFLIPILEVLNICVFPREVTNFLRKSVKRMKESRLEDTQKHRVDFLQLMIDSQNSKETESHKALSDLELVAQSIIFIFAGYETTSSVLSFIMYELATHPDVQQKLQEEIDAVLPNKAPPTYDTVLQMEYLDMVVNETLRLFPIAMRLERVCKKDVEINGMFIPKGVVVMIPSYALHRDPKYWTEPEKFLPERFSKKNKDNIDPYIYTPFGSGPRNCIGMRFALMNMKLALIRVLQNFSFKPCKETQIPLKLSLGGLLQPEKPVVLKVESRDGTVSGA
T1 sequence (P08684 whole entry): as above

As to `Cc1nc(-c2ccccn2)ncc1C(=O)Nn1cc(C)c2cc(F)ccc21`, the Ratio at Cytochrome P450 3A4 [1] is 170 to 173; at Cytochrome P450 3A4 [3], 160 to 167. In addition, the activity on CYP3A4 [2] came out at 30%; at CYP3A4 [4] it was 20%.
With `Cc1nc(-c2ncccn2)ncc1C(=O)Nn1ccc2c(C(F)(F)F)cccc21`, the IC50 in data set [5] amounted to 8 nM. The activity entry at Cytochrome P450 3A4 [6] was “Not Active”; at Cytochrome P450 3A4 [7], “Not Active”; at CYP3A4 [2] it was 95%; at CYP3A4 [4] it was 90%.
Take `COc1ccc2c(n1)c(C)cn2NC(=O)c1cnc(-c2ccccn2)nc1C`: the Ratio is listed as 338 on Cytochrome P450 3A4 [1], 326 on Cytochrome P450 3A4 [8] and 460 at Cytochrome P450 3A4 [10]. In addition, in data set [5], the half-maximal inhibitory concentration (IC50) turned out to be 3 nM. The activity on CYP3A4 [9] was 19%; at CYP3A4 [11] it was 22%; at CYP3A4 [2] it was 57%; on CYP3A4 [4] it was above 70%.
Regarding `Cc1nc(-c2ccccn2)ncc1C(=O)Nn1ccc2c(C(F)(F)F)cccc21`, the IC50 in data set [5] stood at 10 nM. Further, the values for the Ratio at Cytochrome P450 3A4 [8] and on Cytochrome P450 3A4 [10] were 1119 and 842, respectively. For the same compound, the activity at CYP3A4 [9] is 57%; at CYP3A4 [11], 59%; on CYP3A4 [2], 100%; at CYP3A4 [4], 91%.
For `Cc1nc(-c2ccccn2)ncc1C(=O)Nn1cc(C)c2nc(F)ccc21`, the IC50 in data set [5] was found to be 6 nM. Also, the figures for the activity at CYP3A4 [2] and at CYP3A4 [4] were 79% and 91%, respectively.
Consider `CNS(=O)(=O)c1cccc(CNC(=O)c2cnc(-c3cccc(F)c3)nc2C)c1`, for which inhibition in [5] was half-maximal at 9.5 nM (IC50).
As to `CC(C)(CO)NS(=O)(=O)c1cccc(CNC(=O)c2cnc(-c3cccc(F)c3)nc2)c1`, in data set [5], the IC50 is 23 nM.
